# Source: patent EP1229025A1, “NOVEL QUINAZOLINE DERIVATIVES” (Japan Energy Corporation, priority 1999, dated 2001)
# Tested on: TNF-α production
# Assay: TNF-α production inhibiting test using human PBMC (LPS stimulus, ELISA)
# Type: cell-based
# Settings: LPS 10 ng/ml, 16 hours, ELISA of culture supernatants
# Procedure: Example 145: TNF-α production inhibiting test using human PBMC (peripheral blood mononuclear cells)
# Preparation of human PBMC
# The blood of a healthy person was taken with a vacuum blood-collecting tube (Nipro neotube) and diluted up to two-fold with physiological saline (Otsuka Pharmaceuticals). To the diluted blood was added 6% dextran T-500 (prepared after dissolution in physiological saline (Otsuka Pharmaceuticals) and sterilization with an autoclave) so as to make a final concentration of 1%. The solution was subjected to tumble mixing and allowed to stand at room temperature for 30 minutes to precipitate the erythrocytes. The supernatant was collected and subjected to centrifugation at 20 °C and at 1,500 rpm for 10 minutes. The cells were suspended in 3 ml of RPMI1640 culture medium (Asahi Technogllas) and overlaid on the solution surface of 3 ml Lymphoprep (NYCOMED). Further, with 1.5 ml of RPMI1640 culture medium being added to the tube which had contained the cell suspension liquid, the cells attached to the tube, which had remained uncollected, were suspended for collection and overlaid on the Lymphoprep previously mentioned. This operation was repeated again. After centrifugation at 20 °C and at 2,000 rpm for 30 minutes, there was collected a fraction of peripheral blood mononuclear cells present in the boundary surface between the Lymphoprep and the RPMI1640 culture medium. The cells were washed twice with 10 ml RPMI1640 culture medium to remove the Lymphoprep and then suspended in a RPMI1640 culture medium added with 10% bovine fetal serum (IRVINE SCIENTIFIC), 100 U/ml penicillin and 100 µg/ml streptomycin (hereinafter referred to as cRPMI1640 culture medium). The number of the cells was measured by Tuerk dying, and the cells, after adjustment to 3 × 10^6 cells/ml, were planted in 100 µl/well on a 96-well plate (FALCON). The cells were cultured at 37 °C under 5%CO2 atmosphere for about 5 hours.
# Induction of TNF-α production by LPS stimulus
# LPS (E.coli 0111:B4, DIFCO), which had been prepared to 10 mg/ml with water and kept at -20, was diluted to 100 µg/ml with cRPMI1640 culture medium and subjected to sterile filtration. The 100 µg/ml LPS was diluted with cRPMI1640 culture medium to prepare 20 ng/ml LPS. A compound to be tested which was dissolved in DMSO at 1,000-fold concentration was diluted to 500-fold with cRPMI1640 culture medium containing 20 ng/ml LPS and added in 100 µl/well to the cells which had been planted on the previously mentioned 96-well plate (final concentration of LPS: 10 ng/ml). For use as the control group, the solutions were made by diluting DMSO of the same volume as in the test compounds with cRPMI1640 culture medium containing 20 ng/ml LPS, and they were added to the cells. These cells were cultured at 37 °C under 5%CO2 atmosphere for 16 hours.
# Determination of TNF-α activity (ELISA method)
# To the 96-well plate the mouse anti-human TNF-α antibody (prepared to 2 µg/ml with Coating buffer*^1) was added so as to make 100 µl/well and allowed to stand at 4 °C overnight. After 5-times washing with Wash buffer*^2 (300µl/well), the Blocking buffer*^3 was added to the solutions, which were allowed to stand 37 °C for 2 hours. The culture supernatants were diluted up to 5-fold in the plate (supernatant 20 µl being added to 80 µl of cRPMI1640 culture medium). Simultaneously, for using for a calibration curve, a series of dilution of recombinant human TNF-α was prepared arid allowed to stand 37 °C for 1 hour. After 5-times washing with Wash buffer (300 µl /well), biotinylated rabbit anti-human TNF-α antibody (prepared to 0.25 µg/ml with Antibody diluent*^4) was added so as to make 100 µl /well and allowed to stand at 37 °C for 1 hour. After 5-times washing with Wash buffer (300 µl /well), Streptavidin-Horseradish peroxidase(prepared to 1:4000 with Antibody diluent) was added to make 100 µl /well and allowed to stand at 37 °C for 15 minutes. […]
row,Compound,IC50
1,"O=[N+]([O-])c1cc2c(NCCc3ccc(Cl)cc3)ncnc2cc1N1CCNCC1 [Example 1, 4-[2-(4-chlorophenyl)ethylamino]-6-nitro-7-(piperazin-1-yl)quinazoline]",800 nM
2,"O=[N+]([O-])c1cc2c(NCCc3ccc(Cl)cc3)ncnc2cc1N1CCCNCC1 [Example 2, 4-[2-(4-chlorophenyl)ethylamino]-7-(homopiperazin-1-yl)-6-nitroquinazoline]",2100 nM
3,"CN1CCN(c2cc3ncnc(NCCc4ccc(Cl)cc4)c3cc2[N+](=O)[O-])CC1 [Example 3, 4-[2-(4-chlorophenyl)ethylamino]-7-(4-methylpiperazin-1-yl)-6-nitroquinazoline]",1400 nM
4,"O=[N+]([O-])c1cc2c(NCCc3ccc(Cl)cc3)ncnc2cc1N1CCN(CCO)CC1 [Example 5, 4-[2-(4-chlorophenyl)ethylamino]-7-[4-(2-hydroxyethyl)piperazin-1-yl)-6-nitroquinazoline]",1900 nM
5,"O=CN1CCN(c2cc3ncnc(NCCc4ccc(Cl)cc4)c3cc2[N+](=O)[O-])CC1 [Example 6, 4-[2-(4-chlorophenyl)ethylamino]-7-(4-formylpiperazin-1-yl)-6-nitroquinazoline]",2500 nM
6,"NC1CCN(c2cc3ncnc(NCCc4ccc(Cl)cc4)c3cc2[N+](=O)[O-])CC1 [Example 8, 7-(4-aminopiperidin-1-yl)-4-[2-(4-chlorophenyl)ethylamino]-6-nitroquinazoline]",1400 nM
7,"NCC1CCN(c2cc3ncnc(NCCc4ccc(Cl)cc4)c3cc2[N+](=O)[O-])CC1 [Example 9, 7-(4-aminomethylpiperidin-1-yl)-4-[2-(4-chlorophenyl)ethylamino]-6-nitroquinazoline]",1300 nM
8,"O=[N+]([O-])c1cc2c(NCCc3ccccc3)ncnc2cc1N1CCNCC1 [Example 10, 6-nitro-4-[2-(phenyl)ethylamino]-7-(piperazin-1-yl)quinazoline]",400 nM
9,"O=[N+]([O-])c1cc2c(NCc3ccccc3)ncnc2cc1N1CCNCC1 [Example 18, 4-(benzylamino)-6-nitro-7-(piperazin-1-yl)quinazoline]",400 nM
10,"O=[N+]([O-])c1cc2c(NCc3ccc(F)cc3)ncnc2cc1N1CCNCC1 [Example 25, 4-(4-fluorobenzylamino)-6-nitro-7-(piperazin-1-yl)quinazoline]",400 nM
11,"O=[N+]([O-])c1cc2c(NCCc3ccc(F)cc3)ncnc2cc1N1CCNCC1 [Example 37, 4-[2-(4-fluorophenyl)ethylamino]-6-nitro-7-(piperazin-1-yl)quinazoline]",600 nM
12,"O=[N+]([O-])c1cc2c(NCCc3cccs3)ncnc2cc1N1CCNCC1 [Example 42, 6-nitro-7-(piperazin-1-yl)-4-[2-(2-thienyl)ethylamino]quinazoline]",500 nM
13,"O=[N+]([O-])c1cc2c(NCCCc3ccccc3)ncnc2cc1N1CCNCC1 [Example 54, 6-nitro-4-[3-(phenyl)propylamino]-7-(piperazin-1-yl)quinazoline]",400 nM
14,"O=[N+]([O-])c1cc2c(NCCc3ccccn3)ncnc2cc1N1CCNCC1 [Example 56, 6-nitro-7-(piperazin-1-yl)-4-[2-(2-pyridyl)ethylamino]quinazoline]",1100 nM
15,"O=[N+]([O-])c1cc2c(NCCc3cccnc3)ncnc2cc1N1CCNCC1 [Example 57, 6-nitro-7-(piperazin-1-yl)-4-[2-(3-pyridyl)ethylamino]quinazoline]",2300 nM
16,"O=[N+]([O-])c1cc2c(NCCc3ccncc3)ncnc2cc1N1CCNCC1 [Example 58, 6-nitro-7-(piperazin-1-yl)-4-[2-(4-pyridyl)ethylamino]quinazoline]",3500 nM

row,Compound,IC50
1,"O=[N+]([O-])c1cc2c(NCc3cccc4ccccc34)ncnc2cc1N1CCNCC1 [Example 59, 4-[(1-naphthyl)methylamino]-6-nitro-7-(piperazin-1-yl)quinazoline]",500 nM
2,"O=[N+]([O-])c1cc2c(NCc3ccc(Cl)cc3)ncnc2cc1N1CCNCC1 [Example 60, 4-(4-chlorobenzylamino)-6-nitro-7-(piperazin-1-yl)quinazoline]",600 nM
3,"O=[N+]([O-])c1cc2c(NCc3ccc(C(F)(F)F)cc3)ncnc2cc1N1CCNCC1 [Example 63, 6-nitro-7-(piperazin-1-yl)-4-[4-(1,1,1-trifluoiomethyl)benzylamino]quinazoline]",1600 nM
4,"Cc1ccc(CNc2ncnc3cc(N4CCNCC4)c([N+](=O)[O-])cc23)cc1 [Example 64, 4-(4-methylbenzylamino)-6-nitro-7-(piperazin-1-yl)quinazoline]",400 nM
5,"COc1ccccc1CNc1ncnc2cc(N3CCNCC3)c([N+](=O)[O-])cc12 [Example 65, 4-(2-methoxylbenzylamino)-6-nitro-7-(piperazin-1-yl)quinazoline]",1200 nM
6,"COc1cccc(CNc2ncnc3cc(N4CCNCC4)c([N+](=O)[O-])cc23)c1 [Example 66, 4-(3-methoxylbenzylamino)-6-nitro-7-(piperazin-1-yl)quinazoline]",700 nM
7,"COc1ccc(CNc2ncnc3cc(N4CCNCC4)c([N+](=O)[O-])cc23)cc1 [Example 67, 4-(4-methoxylbenzylamino)-6-nitro-7-(piperazin-1-yl)quinazoline]",300 nM
8,"COc1ccc(CNc2ncnc3cc(N4CCNCC4)c([N+](=O)[O-])cc23)cc1OC [Example 68, 4-(3,4-dimethoxylbenzylamino)-6-nitro-7-(piperazin-1-yl)quinazoline]",2400 nM
9,"COc1cc(CNc2ncnc3cc(N4CCNCC4)c([N+](=O)[O-])cc23)cc(OC)c1OC [Example 69, 6-nitro-7-(piperazin-1-yl)-4-(3,4,5-trimethoxylbenzylamino)quinazoline]",1800 nM
10,"O=[N+]([O-])c1cc2c(NCCc3ccccc3Cl)ncnc2cc1N1CCNCC1 [Example 70, 4-[2-(2-chlorophenyl)ethylamino]-6-nitro-7-(piperazin-1-yl)quinazoline]",600 nM
11,"O=[N+]([O-])c1cc2c(NCCc3cccc(Cl)c3)ncnc2cc1N1CCNCC1 [Example 71, 4-[2-(3-chlorophenyl)ethylamino]-6-nitro-7-(piperazin-1-yl)quinazoline]",600 nM
12,"O=[N+]([O-])c1cc2c(NCCc3ccc(Br)cc3)ncnc2cc1N1CCNCC1 [Example 72, 4-[2-(4-bromophenyl)ethylamino]-6-nitro-7-(piperazin-1-yl)quinazoline]",400 nM
13,"Cc1ccc(CCNc2ncnc3cc(N4CCNCC4)c([N+](=O)[O-])cc23)cc1 [Example 75, 4-[2-(4-methylphenyl)ethylamino]-6-nitro-7-(piperazin-1-yl)quinazoline]",1900 nM
14,"COc1ccc(CCNc2ncnc3cc(N4CCNCC4)c([N+](=O)[O-])cc23)cc1 [Example 78, 4-[2-(4-methoxyphenyl)ethylamino]-6-nitro-7-(piperazin-1-yl)quinazoline]",1100 nM
15,"COc1ccc(CCNc2ncnc3cc(N4CCNCC4)c([N+](=O)[O-])cc23)cc1OC [Example 79, 4-[2-(3,4-dimethoxyphenyl)ethylamino]-6-nitro-7-(piperazin-1-yl)quinazoline]",2300 nM
16,"O=[N+]([O-])c1cc2c(NCCc3ccc(O)cc3)ncnc2cc1N1CCNCC1 [Example 80, 4-[2-(4-hydroxyphenyl)ethylamino]-6-nitro-7-(piperazin-1-yl)quinazoline]",2500 nM
